From US20240016941A1, “COMBINATION THERAPY” (priority 2020, published 2024)

Target: T1, purified LasB protein from P. aeruginosa (Pseudomonas aeruginosa, UniProt P14756)
T1 construct: purchased Merck or Charles River Laboratories
Assay: Fluorometric assay to determine Ki (purified LasB, Abz-Ala-Gly-Leu-Ala-p-Nitro-Benzyl-Amide substrate)
Type: biochemical
Protocol: Experiments were therefore conducted (1) to measure the potency of inhibition of compounds of the invention against purified Pseudomonas aeruginosa LasB enzyme and also experiments were conducted (2) to measure the ability of compounds of the invention to inhibit LasB-catalysed elastin degradation. The first assay uses a commercial fluorescent synthetic peptide and purified LasB enzyme. The LasB hydrolysis kinetics are measured allowing the determination of the IC50 and Ki of the inhibitors; the second is a more physiological assay using dialysed Pseudomonas aeruginosa supernatant as source of enzyme, plus its natural substrate Elastin. It is an “end point assay” that determines the percentage of LasB inhibition by each compound for one particular time point and inhibitor concentration. Technical details are described below:
This assay uses commercially available substrate (Abz-Ala-Gly-Leu-Ala-p-Nitro-Benzyl-Amide (Ex: 340 nm, Em: 415 nm) from Peptide International) and purified LasB protein from P. aeruginosa (provided by Merck or Charles River Laboratories). It is performed to determine LasB elastase activity and assess compound inhibition in 96-well plate format. All compounds of Formula (I) were assessed using the method described below.
Method: 10 to 140 ng/ml purified LasB is incubated with 250 μM Abz-Ala-Gly-Leu-Ala-p-Nitro-Benzyl-Amide in 50 mM Tris-HCl pH 7.4, 2.5 mM CaCl2), 0.01% of Triton X100 at 37° C. LasB activity (corresponding to fluorescence emission induced by substrate hydrolysis) is measured over 30 min at 37° C. with a fluorescence plate reader such as the Perkin Elmer Envision or similar. Different range of inhibitor concentrations are routinely assessed depending of inhibitor potency from 0.0016 to 200 μM (2-fold dilutions series) in order to determine IC50.
The equation used to calculate the Ki from IC50 is: Ki=IC50/(1+([S]/Km)) where [S]=250 μM and Km=214 μM.

T1 sequence (P14756 198-498): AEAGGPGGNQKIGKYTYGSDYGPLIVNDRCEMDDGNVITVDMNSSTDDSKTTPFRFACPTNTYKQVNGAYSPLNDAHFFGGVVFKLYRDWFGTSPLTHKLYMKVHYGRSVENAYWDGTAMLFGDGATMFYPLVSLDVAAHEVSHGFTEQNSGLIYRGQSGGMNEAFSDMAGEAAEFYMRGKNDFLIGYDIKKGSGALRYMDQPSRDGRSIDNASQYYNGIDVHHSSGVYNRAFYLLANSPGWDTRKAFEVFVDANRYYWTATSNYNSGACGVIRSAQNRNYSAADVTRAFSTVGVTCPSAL

Row | SMILES | Ki [nM]
1 | NS(=O)(=O)c1cccc2sc(CNC(=O)C3(CC(=O)O)Cc4ccccc4C3)nc12 [Example 4, 2-[2-[(4-sulfamoyl-1,3-benzothiazol-2-yl)methylcarbamoyl]indan-2-yl]acetic acid] | 200 to 10000
2 | O=C(O)CC1(C(=O)NCc2nc3ccc(OCCCO)cc3s2)Cc2ccccc2C1 [Example 50, 2-[2-[[6-(3-hydroxypropoxy)-1,3-benzothiazol-2-yl]methylcarbamoyl]indan-2-yl]acetic acid] | 50 to 100
3 | O=C(O)CC1(C(=O)NCc2nc3c(C(=O)N4CCCC4)cccc3s2)Cc2ccccc2C1 [Example 2, 2-[2-[[4-(pyrrolidine-1-carbonyl)-1,3-benzothiazol-2-yl]methylcarbamoyl]indan-2-yl]acetic acid] | 200 to 10000
4 | CN(C)CCNC(=O)c1ccc2nc(CNC(=O)C3(CC(=O)O)Cc4ccccc4C3)sc2c1 [Example 30, 2-[2-[[6-[2-(dimethylamino)ethylcarbamoyl]-1,3-benzothiazol-2-yl]methylcarbamoyl]indan-2-yl]acetic acid] | 200 to 10000
5 | O=C(O)CC1(C(=O)NCc2nc3c(S(=O)(=O)N4CCNCC4)cccc3s2)Cc2ccccc2C1 [Example 5, 2-[2-[(4-piperazin-1-ylsulfonyl-1,3-benzothiazol-2-yl)methylcarbamoyl]indan-2-yl]acetic acid] | 200 to 10000
6 | CCCOc1ccc2nc(CNC(=O)C3(CC(=O)O)Cc4ccccc4C3)sc2c1 [Example 51, 2-[2-[(6-propoxy-1,3-benzothiazol-2-yl)methylcarbamoyl]indan-2-yl]acetic acid] | 50 to 100
7 | CN1CCN(C(=O)c2ccc3nc(CNC(=O)C4(CC(=O)O)Cc5ccccc5C4)sc3c2)CC1 [Example 29, 2-[2-[[6-(4-methylpiperazine-1-carbonyl)-1,3-benzothiazol-2-yl]methylcarbamoyl]indan-2-yl]acetic acid] | 200 to 10000
8 | COc1cc2sc(CNC(=O)C3(CC(=O)[O-])Cc4ccccc4C3)nc2cc1C(=O)N1CCC([N+](C)(C)C)CC1 [Example 39, 2-[2-[[6-methoxy-5-[4-(trimethylammonio)piperidine-1-carbonyl]-1,3-benzothiazol-2-yl]methylcarbamoyl]indan-2-yl]acetate] | 200 to 10000
9 | COc1cc2sc(CNC(=O)C3(CC(=O)[O-])Cc4ccccc4C3)nc2cc1OCCOCC[N+](C)(C)C [Example 54, 2-[2-[[6-methoxy-5-[2-[2-(trimethylammonio)ethoxy]ethoxy]-1,3-benzothiazol-2-yl]methylcarbamoyl]indan-2-yl]acetate] | 50 to 100
10 | CN(C)C1CN(C(=O)c2ccc3nc(CNC(=O)C4(CC(=O)O)Cc5ccccc5C4)sc3c2)C1 [Example 26, 2-[2-[[6-[3-(dimethylamino)azetidine-1-carbonyl]-1,3-benzothiazol-2-yl]methylcarbamoyl]indan-2-yl]acetic acid] | 200 to 10000
11 | CS(=O)(=O)c1cccc2sc(CNC(=O)C3(CC(=O)O)Cc4ccccc4C3)nc12 [Example 7, 2-[2-[(4-methylsulfonyl-1,3-benzothiazol-2-yl)methylcarbamoyl]indan-2-yl]acetic acid] | 200 to 10000
12 | CN(C)CCCN1CCN(C(=O)c2ccc3sc(CNC(=O)C4(CC(=O)O)Cc5ccccc5C4)nc3c2)CC1 [Example 31, 2-[2-[[5-[4-[3-(dimethylamino)propyl]piperazine-1-carbonyl]-1,3-benzothiazol-2-yl]methylcarbamoyl]indan-2-yl]acetic acid] | 200 to 10000
13 | COc1cc2sc(CNC(=O)C3(CC(=O)O)Cc4ccccc4C3)nc2cc1OCCCN(C)C [Example 52, 2-[2-[[5-[3-(dimethylamino)propoxy]-6-methoxy-1,3-benzothiazol-2-yl]methylcarbamoyl]indan-2-yl]acetic acid] | 50 to 100
14 | COc1cc2sc(CNC(=O)C3(CC(=O)[O-])Cc4cc(F)c(F)cc4C3)nc2cc1OCC[N+](C)(C)C [Example 56, 2-[5,6-difluoro-2-[[6-methoxy-5-[2-(trimethylammonio)ethoxy]-1,3-benzothiazol-2-yl]methylcarbamoyl]indan-2-yl]acetate] | 50 to 100
